Measurements reported in ChEMBL document CHEMBL2401656, “LDK378: a promising anaplastic lymphoma kinase (ALK) inhibitor” (J Med Chem, 2013).

Tests used:
Rhesus monkey = assay: Cardiotoxicity in monkey assessed as QTc prolongation by telemetric analysis; format: toxicity, organism-based, Macaca mulatta; conditions: in vivo
Canis familiaris = species: Canis familiaris; assay: Cardiotoxicity in dog assessed as QTc prolongation by telemetric analysis; format: toxicity, organism-based, Canis lupus familiaris; conditions: in vivo
Cytochrome P450 3A4 = Cytochrome P450 3A4 (Homo sapiens, UniProt P08684); assay: Inhibition of CYP3A4 (unknown origin); format: ADME
[1] = Metabolic stability in liver microsomes (unknown origin); format: ADME, Microsome
Rattus norvegicus [2] = assay: Toxicity in rat xenografted with human NCI-H2228 cells expressing EML4-ALK fusion gene; format: organism-based; conditions: in vivo
Rattus norvegicus [3] = assay: Toxicity in rat xenografted with human KARPAS299 cells; format: organism-based, KARPAS-299; conditions: in vivo
[4] = Oral bioavailability in rat; format: ADME, organism-based; conditions: in vivo
[5] = Cytotoxicity against mouse BA/F3 cells transfected with Tel-InsR gene assessed as growth inhibition; format: functional, cell-based; conditions: BaF3
[6] = Cytotoxicity against wild type mouse BA/F3 cells assessed as growth inhibition; format: functional, cell-based; conditions: BaF3
[7] = Cytotoxicity against mouse BA/F3 cells expressing NPM-ALK fusion gene assessed as growth inhibition; format: functional, cell-based; conditions: BaF3
KARPAS-299 [8] = assay: Cytotoxicity against human KARPAS299 cells expressing NPM-ALK fusion gene assessed as growth inhibition
KARPAS-299 [9] = conditions: Homo sapiens
Description: Antitumor activity against human KARPAS299 cells xenografted in rat assessed as tumor growth inhibition

Chain of Cytochrome P450 3A4 (P08684 whole entry): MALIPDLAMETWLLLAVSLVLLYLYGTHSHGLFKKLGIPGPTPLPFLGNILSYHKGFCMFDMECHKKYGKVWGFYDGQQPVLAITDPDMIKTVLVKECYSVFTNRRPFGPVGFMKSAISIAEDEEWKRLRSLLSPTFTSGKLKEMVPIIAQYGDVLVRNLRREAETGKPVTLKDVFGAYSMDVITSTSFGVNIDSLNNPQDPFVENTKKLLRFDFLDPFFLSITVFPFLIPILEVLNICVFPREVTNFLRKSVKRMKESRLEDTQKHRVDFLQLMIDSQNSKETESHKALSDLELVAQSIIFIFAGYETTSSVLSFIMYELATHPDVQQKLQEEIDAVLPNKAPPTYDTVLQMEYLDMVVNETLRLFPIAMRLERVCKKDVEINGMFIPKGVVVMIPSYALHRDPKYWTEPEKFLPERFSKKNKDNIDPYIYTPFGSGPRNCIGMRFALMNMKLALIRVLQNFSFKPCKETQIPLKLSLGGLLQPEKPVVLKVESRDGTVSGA

For `Cc1cc(Nc2ncc(Cl)c(Nc3ccccc3S(=O)(=O)C(C)C)n2)c(OC(C)C)cc1C1CCNCC1` [CERITINIB], which Activity (Rhesus monkey) is on record?
The Activity was “Non-toxic”.

And the Activity (Canis familiaris)?
Its Activity is “Non-toxic”.

And the “inhibition (INH)” value (Cytochrome P450 3A4)?
Its value is “Active”.

What about the Stability [1] of the same molecule?
Its Stability is “Stable”.

And the Activity (Rattus norvegicus [2])?
Its Activity is “Non-toxic”.

What about the Activity (Rattus norvegicus [3]) of the same molecule?
The Activity was “Non-toxic”.

What about the bioavailability [4] of the same molecule?
The bioavailability was over 50%.

What about the IC50 [5] of the same molecule?
The IC50 was 320 nM.

And the IC50 [6]?
The IC50 was over 2000 nM.

And the IC50 [7]?
The IC50 was 26 nM.

What about the IC50 (KARPAS-299 [8]) of the same molecule?
The IC50 was 22.8 nM.

And the TGI (KARPAS-299 [9])?
Its TGI is “Dose-dependent effect”.
